Data on one compound can be found in ChEMBL document CHEMBL3886253, “Imidazolidinones and analogs exhibiting anti-cancer and anti-proliferative activities” (2015).

The target of experiment [1] is Macrophage colony-stimulating factor 1 receptor (Homo sapiens, UniProt P07333). Put plainly: Enzymatic Assay: Activity of unphosphorylated c-FMS kinase (uFMS, Seq. ID no. 1) was determined by following the production of ADP from the FMS kinase reaction with ATP and poly E4Y as substrates through coupling with the pyruvate kinase/lactate dehydrogenase system (e.g., Schindler et al. Science (2000) 289: 1938-1942). In this assay, the oxidation of NADH (thus the decrease at A340 nm) was continuously monitored spectrophometrically. The reaction mixture (100 µL) contained FMS (purchased from Millipore) (10 nM), polyE4Y (1 mg/mL), MgCl2 (10 mM), pyruvate kinase (4 units), lactate dehydrogenase (0.7 units), phosphoenol pyruvate (1 mM), NADH (0.28 mM) and ATP (500 µM) in 90 mM Tris buffer containing 0.2% octyl-glucoside and 1% DMSO, pH 7.5. The inhibition reaction was started by mixing serial diluted test compound with the above reaction mixture. The absorption at 340 nm was monitored continuously for 4 hours at 30° C. on Synergy 2 plate reader.

In experiment [2] the target is Hepatocyte growth factor receptor (Homo sapiens, UniProt P08581). Put plainly: (§1) In Vitro Receptor Tyrosine Kinase Assay: These tests measure the ability of compounds to inhibit the enzymatic activity of recombinant human c-Met/HGF receptor and VEGF receptor enzymatic activity. A 1.3-kb cDNA corresponding to the intracellular domain of c-Met or c-Met IC (Genbank accession number NP000236-1 amino acid 1078 to 1337) is cloned into the BamHI/XhoI sites of the pBlueBacHis2A vector (Invitrogen) for the production of a histidine-tagged version of that enzyme. This construct is used to generate recombinant baculovirus using the Bac-N-Blue¿ system according to the manufacturer's instructions (Invitrogen). The c-Met IC protein is expressed in Hi-5 cells (Trichoplusia Ni) upon infection with recombinant baculovirus construct. Briefly, Hi-5 cells grown in suspension and maintained in serum-free medium (Sf900 II supplemented with gentamycin) at a cell density of about 2x10^6 cells/ml are infected with the above-mentioned viruses at a multiplicity of infection (MOI) of 0.2 during 72 hours at 27 C.

Experiment [3] concerns the target Vascular endothelial growth factor receptor 2 (Homo sapiens, UniProt P35968). The experiment is described as §1.

pIC50: −log10 of the molar value.

Chain of Macrophage colony-stimulating factor 1 receptor (P07333 whole entry): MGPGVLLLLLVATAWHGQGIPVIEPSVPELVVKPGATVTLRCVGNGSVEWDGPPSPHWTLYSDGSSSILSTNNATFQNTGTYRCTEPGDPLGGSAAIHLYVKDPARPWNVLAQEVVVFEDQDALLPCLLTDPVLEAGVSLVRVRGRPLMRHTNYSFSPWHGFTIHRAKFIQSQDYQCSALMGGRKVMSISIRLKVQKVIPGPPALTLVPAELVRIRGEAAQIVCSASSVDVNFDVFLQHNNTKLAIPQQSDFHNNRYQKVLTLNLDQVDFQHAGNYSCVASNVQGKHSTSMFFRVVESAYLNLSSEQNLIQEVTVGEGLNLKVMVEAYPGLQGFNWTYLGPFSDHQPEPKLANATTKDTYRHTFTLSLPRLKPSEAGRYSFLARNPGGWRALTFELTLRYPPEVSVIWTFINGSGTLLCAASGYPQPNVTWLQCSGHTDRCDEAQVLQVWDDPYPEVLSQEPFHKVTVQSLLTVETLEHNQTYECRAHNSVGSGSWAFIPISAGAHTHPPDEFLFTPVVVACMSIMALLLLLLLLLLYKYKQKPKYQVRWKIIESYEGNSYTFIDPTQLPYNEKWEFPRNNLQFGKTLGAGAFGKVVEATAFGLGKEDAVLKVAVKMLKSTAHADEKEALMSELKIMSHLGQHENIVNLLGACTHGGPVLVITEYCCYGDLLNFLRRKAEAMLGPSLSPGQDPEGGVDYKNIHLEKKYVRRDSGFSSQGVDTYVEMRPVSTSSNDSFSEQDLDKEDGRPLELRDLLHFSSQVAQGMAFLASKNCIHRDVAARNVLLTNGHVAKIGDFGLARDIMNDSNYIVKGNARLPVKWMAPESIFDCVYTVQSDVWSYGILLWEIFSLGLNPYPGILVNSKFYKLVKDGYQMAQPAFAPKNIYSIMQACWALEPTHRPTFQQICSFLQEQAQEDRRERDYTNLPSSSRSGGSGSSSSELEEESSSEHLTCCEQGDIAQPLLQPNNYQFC
Chain of Vascular endothelial growth factor receptor 2 (P35968 whole entry): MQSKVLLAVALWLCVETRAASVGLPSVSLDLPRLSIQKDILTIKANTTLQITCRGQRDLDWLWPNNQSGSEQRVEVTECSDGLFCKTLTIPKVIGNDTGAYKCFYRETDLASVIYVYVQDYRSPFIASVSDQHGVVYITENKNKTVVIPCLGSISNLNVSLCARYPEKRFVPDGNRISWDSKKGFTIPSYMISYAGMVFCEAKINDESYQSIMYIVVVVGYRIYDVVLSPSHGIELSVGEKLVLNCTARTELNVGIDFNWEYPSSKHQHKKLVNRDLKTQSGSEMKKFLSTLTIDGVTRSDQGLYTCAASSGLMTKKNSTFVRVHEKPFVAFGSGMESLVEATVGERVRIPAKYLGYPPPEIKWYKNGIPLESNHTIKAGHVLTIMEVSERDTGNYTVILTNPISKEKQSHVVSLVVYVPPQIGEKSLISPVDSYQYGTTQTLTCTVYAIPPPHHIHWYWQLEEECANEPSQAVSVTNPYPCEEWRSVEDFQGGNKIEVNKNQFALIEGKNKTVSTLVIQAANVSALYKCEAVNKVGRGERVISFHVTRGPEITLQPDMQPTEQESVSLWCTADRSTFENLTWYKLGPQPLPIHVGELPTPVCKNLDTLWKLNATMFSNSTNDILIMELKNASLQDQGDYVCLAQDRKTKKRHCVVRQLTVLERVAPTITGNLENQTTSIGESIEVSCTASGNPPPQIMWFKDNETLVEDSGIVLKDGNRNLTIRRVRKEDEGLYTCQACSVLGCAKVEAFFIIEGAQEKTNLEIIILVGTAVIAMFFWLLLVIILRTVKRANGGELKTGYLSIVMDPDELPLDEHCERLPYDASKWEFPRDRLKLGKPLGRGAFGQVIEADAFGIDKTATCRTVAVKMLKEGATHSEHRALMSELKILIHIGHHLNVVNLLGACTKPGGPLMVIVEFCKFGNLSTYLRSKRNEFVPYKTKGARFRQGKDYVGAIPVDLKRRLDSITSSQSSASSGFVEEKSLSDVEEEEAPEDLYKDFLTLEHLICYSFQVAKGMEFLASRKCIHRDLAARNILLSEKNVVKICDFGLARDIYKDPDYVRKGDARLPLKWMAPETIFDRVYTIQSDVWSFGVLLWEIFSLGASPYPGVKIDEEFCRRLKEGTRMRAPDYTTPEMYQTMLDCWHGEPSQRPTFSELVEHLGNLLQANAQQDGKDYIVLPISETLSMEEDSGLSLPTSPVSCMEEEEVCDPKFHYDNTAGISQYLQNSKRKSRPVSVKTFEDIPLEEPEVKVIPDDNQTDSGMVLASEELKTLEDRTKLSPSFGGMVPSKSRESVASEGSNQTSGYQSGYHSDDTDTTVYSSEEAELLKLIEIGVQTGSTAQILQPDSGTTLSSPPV
Chain of Hepatocyte growth factor receptor (P08581 whole entry, the tested form may be a part): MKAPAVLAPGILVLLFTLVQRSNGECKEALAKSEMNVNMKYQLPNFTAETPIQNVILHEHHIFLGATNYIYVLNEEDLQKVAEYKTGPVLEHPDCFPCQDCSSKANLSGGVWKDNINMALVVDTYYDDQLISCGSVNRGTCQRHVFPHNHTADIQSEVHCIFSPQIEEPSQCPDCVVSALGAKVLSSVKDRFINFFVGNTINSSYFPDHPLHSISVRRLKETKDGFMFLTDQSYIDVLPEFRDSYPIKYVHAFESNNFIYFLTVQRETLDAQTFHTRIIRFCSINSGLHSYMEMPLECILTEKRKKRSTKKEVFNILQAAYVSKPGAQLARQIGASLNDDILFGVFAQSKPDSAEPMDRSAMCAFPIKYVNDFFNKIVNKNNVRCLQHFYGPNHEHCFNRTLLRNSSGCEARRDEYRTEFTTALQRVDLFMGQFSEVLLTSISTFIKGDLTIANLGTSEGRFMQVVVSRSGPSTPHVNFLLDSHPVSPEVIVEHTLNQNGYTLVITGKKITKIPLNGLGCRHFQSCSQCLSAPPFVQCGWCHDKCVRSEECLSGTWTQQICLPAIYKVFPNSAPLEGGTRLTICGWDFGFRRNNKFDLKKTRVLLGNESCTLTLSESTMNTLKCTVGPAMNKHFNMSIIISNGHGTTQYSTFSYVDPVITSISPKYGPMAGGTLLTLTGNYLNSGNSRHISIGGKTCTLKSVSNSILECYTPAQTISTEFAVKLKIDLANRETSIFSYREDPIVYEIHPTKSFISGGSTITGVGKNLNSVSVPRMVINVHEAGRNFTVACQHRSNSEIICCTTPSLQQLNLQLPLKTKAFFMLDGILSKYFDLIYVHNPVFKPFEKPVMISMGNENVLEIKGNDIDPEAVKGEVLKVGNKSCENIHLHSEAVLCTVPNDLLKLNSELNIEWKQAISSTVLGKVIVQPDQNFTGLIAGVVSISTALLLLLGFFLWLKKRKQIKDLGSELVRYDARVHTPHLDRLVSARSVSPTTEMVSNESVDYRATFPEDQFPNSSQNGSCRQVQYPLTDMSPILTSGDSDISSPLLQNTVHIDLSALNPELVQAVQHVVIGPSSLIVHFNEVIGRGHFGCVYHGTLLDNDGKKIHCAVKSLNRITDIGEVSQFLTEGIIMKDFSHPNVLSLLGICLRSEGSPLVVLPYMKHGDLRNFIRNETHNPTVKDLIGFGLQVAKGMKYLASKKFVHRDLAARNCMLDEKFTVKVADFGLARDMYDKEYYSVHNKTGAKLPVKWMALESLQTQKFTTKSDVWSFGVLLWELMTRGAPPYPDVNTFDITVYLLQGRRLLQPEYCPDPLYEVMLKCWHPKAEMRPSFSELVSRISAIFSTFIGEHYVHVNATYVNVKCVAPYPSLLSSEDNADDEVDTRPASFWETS

`Cn1cc(-c2cc(Oc3ccc(NC(=O)N4CCN(c5ccc(F)cc5)C4=O)nc3)ccn2)cn1`: the negative-log IC50 (pIC50) in experiment [1] was 7.89; in experiment [2], 6.71; in experiment [3], 6.00.
